Results taken from PubChem BioAssay AID1259408 (Genetic Toxicology Data Bank (GENE-TOX), 2018).
Active and inactive are the calls of the source. The rule behind the calls is not given here.

Test system: GENE-TOX genotoxicity assays, various organisms and cells
Assay: GENE-TOX mutagenicity studies
Details: for call: Assay Type: In vivo carcinogenicity studies
[1] = Species/Cell Type: Escherichia coli polA (W3119 vs P3478), Assay Type: Rec-assay, DNA effects (bacterial DNA repair), Assay Code: RE1T, Evaluation Type: Evaluation A (Pre-1980)
[2] = Species/Cell Type: Nonhuman, Assay Type: Sister-chromatid exchange (SCE) in vitro, Assay Code: SC2T, Evaluation Type: Evaluation B (Post-1980)
[3] = Species/Cell Type: Salmonella typhimurium (one or more of the five standard strains: TA98, TA100, TA1535, TA1537, and TA1538), Assay Type: Histidine reverse gene mutation, Ames assay, Assay Code: SALT, Evaluation Type: Evaluation A (Pre-1980)
[4] = Species/Cell Type: Nonhuman, Assay Type: Sister-chromatid exchange (SCE) in vitro, Assay Code: SC2-, Evaluation Type: Evaluation B (Post-1980)
[5] = Species/Cell Type: Bacillus subtilis (H17 vs M45), Assay Type: Rec-assay, spot test, DNA effects (bacterial DNA repair), Assay Code: REWT, Evaluation Type: Evaluation A (Pre-1980)
[6] = Species/Cell Type: Human, Assay Type: Sister-chromatid exchange (SCE) in vitro, Assay Code: SC1+D, Dose Response: With dose response, Evaluation Type: Evaluation B (Post-1980)
[7] = Species/Cell Type: Salmonella typhimurium (one or more of the five standard strains: TA98, TA100, TA1535, TA1537, and TA1538), Assay Type: Histidine reverse gene mutation, Ames assay, Assay Code: SAL-, Evaluation Type: Evaluation A (Pre-1980)
[8] = Species/Cell Type: Salmonella typhimurium (one or more of the five standard strains: TA98, TA100, TA1535, TA1537, and TA1538), Assay Type: Histidine reverse gene mutation, Ames assay, Assay Code: SAL+, Evaluation Type: Evaluation A (Pre-1980)
[9] = Species/Cell Type: Saccharomyces cerevisiae, Assay Type: Mitotic recombination or gene conversion, Assay Code: YEC-, Evaluation Type: Evaluation A (Pre-1980)
[10] = Species/Cell Type: Salmonella typhimurium (one or more of the five standard strains: TA98, TA100, TA1535, TA1537, and TA1538), Assay Type: Histidine reverse gene mutation, Ames assay, Assay Code: SAL+*, Activation: With metabolic activation, Evaluation Type: Evaluation A (Pre-1980)

Compound: C[C@@H]1C[C@@H]([C@H](O)CC2CC(=O)NC(=O)C2)C(=O)[C@@H](C)C1
- mutagenic call (Species/Cell Type: Drosophila melanogaster, Assay Type: Aneuploidy, whole sex chromosome loss, chromosome aberrations, Assay Code: DACT, Evaluation Type: Evaluation A (Pre-1980)): no conclusion
- mutagenic call (Species/Cell Type: Escherichia coli polA (W3110 vs P3478), Assay Type: Rec-assay, DNA effects (bacterial DNA repair), Assay Code: RE2+, Evaluation Type: Evaluation A (Pre-1980)): active; positive
- mutagenic call [1]: no conclusion
- mutagenic call (Species/Cell Type: Mammalian polychromatic erythrocytes, Assay Type: Micronucleus test, chromosome aberrations, Assay Code: MNTT, Evaluation Type: Evaluation A (Pre-1980)): no conclusion
- mutagenic call (Species/Cell Type: Mouse, Sex: Male, Assay Type: Sperm morphology, Assay Code: SPI+, Evaluation Type: Evaluation A (Pre-1980)): active; positive
- mutagenic call (Species/Cell Type: Neurospora crassa, Assay Type: Aneuploidy, chromosome aberrations, Assay Code: NEN-, Evaluation Type: Evaluation A (Pre-1980)): inactive; negative
- call (Species/Cell Type: Nonhuman, Assay Code: CCGT, Evaluation Type: Evaluation A (Pre-1980)): no conclusion
- mutagenic call [2]: no conclusion
- mutagenic call (Species/Cell Type: Vicia faba, Assay Type: Chromosome aberrations, Assay Code: VIC+, Evaluation Type: Evaluation A (Pre-1980)): active; positive

Compound: NC(Cc1ccc(F)cc1)C(=O)O (configuration not stated)
- mutagenic call (Species/Cell Type: Aspergillus nidulans, Assay Type: Aneuploidy, chromosome aberrations, Assay Code: ASN+, Evaluation Type: Evaluation A (Pre-1980)): active; positive
- mutagenic call (Species/Cell Type: Aspergillus nidulans, Assay Type: Mitotic recombination, Assay Code: ASG-, Evaluation Type: Evaluation A (Pre-1980)): inactive; negative
- mutagenic call (Species/Cell Type: Neurospora crassa, Assay Type: Aneuploidy, chromosome aberrations, Assay Code: NEN+, Evaluation Type: Evaluation A (Pre-1980)): active; positive
- mutagenic call (Species/Cell Type: Saccharomyces cerevisiae, Assay Type: Aneuploidy, chromosome aberrations, Assay Code: YEN+, Evaluation Type: Evaluation A (Pre-1980)): active; positive
- mutagenic call (Species/Cell Type: Saccharomyces cerevisiae, Assay Type: Forward gene mutation, Assay Code: YEF+, Evaluation Type: Evaluation A (Pre-1980)): active; positive
- mutagenic call (Species/Cell Type: Saccharomyces cerevisiae, Assay Type: Mitotic recombination or gene conversion, Assay Code: YEC+, Evaluation Type: Evaluation A (Pre-1980)): active; positive
- mutagenic call (Species/Cell Type: Saccharomyces cerevisiae, Assay Type: Reverse gene mutation, Assay Code: YER+, Evaluation Type: Evaluation A (Pre-1980)): active; positive

Compound: CC1CC2=C(CCC2=O)c2ccc3ccccc3c21 (configuration not stated)
- mutagenic call [3]: no conclusion

Compound: CCCCN(CC(=O)O)N=O
- mutagenic call [3]: no conclusion

Compound: CCCNC(=O)NS(=O)(=O)c1ccc(Cl)cc1
- mutagenic call (Species/Cell Type: Human lymphocytes, Assay Type: Sister-chromatid exchange (SCE) in vivo, Assay Code: SCY+, Evaluation Type: Evaluation B (Post-1980)): active; positive
- mutagenic call (Species/Cell Type: Mammalian polychromatic erythrocytes, Assay Type: Micronucleus test, chromosome aberrations, Assay Code: MNT+, Evaluation Type: Evaluation A (Pre-1980)): active; positive
- mutagenic call (Species/Cell Type: Nonhuman, Assay Type: Sister-chromatid exchange (SCE) in vitro, Assay Code: SC2+D, Dose Response: With dose response, Evaluation Type: Evaluation A (Pre-1980)): active; positive
- mutagenic call (Species/Cell Type: Nonhuman, Assay Type: Sister-chromatid exchange (SCE) in vivo, Assay Code: SC3+D, Dose Response: With dose response, Evaluation Type: Evaluation B (Post-1980)): active; positive

Compound: NC(=S=O)c1ccccc1
- mutagenic call (Species/Cell Type: Mammalian polychromatic erythrocytes, Assay Type: Micronucleus test, chromosome aberrations, Assay Code: MNT+U, Dose Response: Unconfirmed positive response, Evaluation Type: Evaluation B (Post-1980)): active; positive

Compound: CCOP(=O)(NC(C)C)Oc1ccc(SC)c(C)c1 (configuration not stated)
- mutagenic call [4]: inactive; negative

Compound: CC(=O)O/C=C/Cc1cccc2c1OCO2
- mutagenic call [3]: no conclusion

Compound: NCCC[C@H](N)C(=O)O
- mutagenic call (Species/Cell Type: Human, Sex: Male, Assay Type: Sperm morphology, Assay Code: SPH-, Evaluation Type: Evaluation A (Pre-1980)): inactive; negative

Compound: COP(=S)(OC)SCn1nnc2ccccc2c1=O
- mutagenic call [5]: no conclusion
- mutagenic call (Species/Cell Type: Drosophila melanogaster, Assay Type: Sex-linked recessive lethal gene mutation, Assay Code: SRLT, Evaluation Type: Evaluation A (Pre-1980)): no conclusion
- mutagenic call (Species/Cell Type: Escherichia coli WP2 UVRA, Assay Type: Tryptophan reverse gene mutation, Assay Code: WPU-*, Activation: With metabolic activation, Evaluation Type: Evaluation A (Pre-1980)): inactive; negative
- mutagenic call [1]: no conclusion
- mutagenic call (Species/Cell Type: Human diploid fibroblasts, Assay Type: Unscheduled DNA synthesis (UDS) in vitro, DNA effects, Assay Code: UDH-, Evaluation Type: Evaluation A (Pre-1980)): inactive; negative
- mutagenic call [4]: inactive; negative
- mutagenic call (Species/Cell Type: Saccharomyces cerevisiae, Assay Type: Mitotic recombination or gene conversion, Assay Code: YEH+, Evaluation Type: Evaluation A (Pre-1980)): active; positive
- mutagenic call [3]: no conclusion

Compound: C/C=C(\C(=C/C)c1ccc(O)cc1)c1ccc(O)cc1
- mutagenic call [6]: active; positive

Compound: CCOP(=S)(OCC)SCCSCC
- mutagenic call [5]: no conclusion
- mutagenic call (Species/Cell Type: Drosophila melanogaster, Assay Type: Sex-linked recessive lethal gene mutation, Assay Code: SRL-, Evaluation Type: Evaluation A (Pre-1980)): inactive; negative
- mutagenic call [1]: no conclusion
- mutagenic call (Species/Cell Type: Hordeum vulgare (barley), Assay Type: Chromosome aberrations, Assay Code: HOC+D, Dose Response: With dose response, Evaluation Type: Evaluation A (Pre-1980)): active; positive
- mutagenic call (Species/Cell Type: Human diploid fibroblasts, Assay Type: Unscheduled DNA synthesis (UDS) in vitro, DNA effects, Assay Code: UDH+/-*, Activation: With metabolic activation, Evaluation Type: Evaluation A (Pre-1980)): inactive; positive without activation, negative with activation
- mutagenic call [2]: no conclusion
- mutagenic call (Species/Cell Type: Saccharomyces cerevisiae, Assay Type: Mitotic recombination or gene conversion, Assay Code: YEH-, Evaluation Type: Evaluation A (Pre-1980)): inactive; negative
- mutagenic call [7]: inactive; negative

Compound: Oc1ccccc1O
- mutagenic call (Species/Cell Type: Allium cepa, Assay Type: Chromosome aberrations, Assay Code: ALC+, Evaluation Type: Evaluation A (Pre-1980)): active; positive
- mutagenic call (Species/Cell Type: Human lymphocytes, Assay Type: Sister-chromatid exchange (SCE) in vitro, Assay Code: SCL+D, Dose Response: With dose response, Evaluation Type: Evaluation B (Post-1980)): active; positive
- mutagenic call [6]: active; positive
- mutagenic call (Species/Cell Type: Mammalian polychromatic erythrocytes, Assay Type: Micronucleus test, chromosome aberrations, Assay Code: MNTT, Evaluation Type: Evaluation B (Post-1980)): no conclusion

Compound: CC(=O)CCCCn1c(=O)c2c(ncn2C)n(C)c1=O
- mutagenic call (Species/Cell Type: Human, Sex: Male, Assay Type: Sperm morphology, Assay Code: SPHT, Evaluation Type: Evaluation A (Pre-1980)): no conclusion

Compound: BrCC(Br)CBr
- mutagenic call [8]: active; positive

Compound: O[C@@H]1c2cccc3ccc4cc5ccccc5c(c4c23)[C@H]1O
- mutagenic call (Species/Cell Type: Chinese hamster lung (V79) cells, Assay Type: Forward gene mutation at the HPRT or ouabain locus, Assay Code: V79+, Evaluation Type: Evaluation A (Pre-1980)): active; positive
- mutagenic call [3]: no conclusion

Compound: Nc1nc2c(ncn2[C@H]2C[C@H](O)[C@@H](CO)O2)c(=O)[nH]1
- mutagenic call (Species/Cell Type: Glycine max (soybean), Assay Type: Gene mutation, Assay Code: GLM-, Evaluation Type: Evaluation A (Pre-1980)): inactive; negative

Compound: O=S(=O)(O)c1ccc(N=Nc2cc(S(=O)(=O)O)c3ccccc3c2O)c2ccccc12
- mutagenic call [5]: no conclusion
- call (Species/Cell Type: Nonhuman, Assay Code: CCG-, Evaluation Type: Evaluation A (Pre-1980)): inactive; negative
- mutagenic call [9]: inactive; negative
- mutagenic call [7]: inactive; negative

Compound: OC1C=Cc2cc3ccc4cccc5ccc(c2C1O)c3c45 (configuration not stated)
- mutagenic call (Species/Cell Type: Mouse prostate cells, Assay Type: Cell transformation, Assay Code: CTM+, Evaluation Type: Evaluation A (Pre-1980)): active; positive

Compound: Nc1nc(-c2ccc([N+](=O)[O-])s2)cs1
- mutagenic call [8]: active; positive

Compound: O=S(=O)(O)c1ccc(N=C2C=CC(=C(c3ccc(Nc4ccc(S(=O)(=O)O)cc4)cc3)c3ccc(Nc4ccc(S(=O)(=O)O)cc4)cc3)C=C2)cc1
- mutagenic call [5]: no conclusion

Compound: O=C(O)c1c(Cl)c(Cl)c(Cl)c(Cl)c1-c1c2cc(I)c(=O)c(I)c-2oc2c(I)c(O)c(I)cc12
- mutagenic call [5]: no conclusion
- mutagenic call (Species/Cell Type: Bacillus subtilis (H17 vs M45T), Assay Type: Rec-assay, spot test, DNA effects (bacterial DNA repair), Assay Code: REXT, Evaluation Type: Evaluation A (Pre-1980)): no conclusion
- mutagenic call (Species/Cell Type: Human, Assay Type: Sister-chromatid exchange (SCE) in vitro, Assay Code: SC1T, Evaluation Type: Evaluation B (Post-1980)): no conclusion
- mutagenic call [2]: no conclusion
- mutagenic call [9]: inactive; negative

Compound: CCCCN(CC(O)CCO)N=O (configuration not stated)
- mutagenic call [10]: active; positive

Compound: COc1cc2c(c3oc(=O)c4c(c13)CC[C@@H]4O)[C@@H]1C=CO[C@@H]1O2
- mutagenic call (Species/Cell Type: Human diploid fibroblasts, Assay Type: Unscheduled DNA synthesis (UDS) in vitro, DNA effects, Assay Code: UDH+D, Dose Response: With dose response, Evaluation Type: Evaluation A (Pre-1980)): active; positive
- mutagenic call [10]: active; positive
